Here are results for 4 sequences from patent US20070128217A1 (priority 2003, published 2007).

Experiment [1] relates to antibodies in sera from SARS patients (sera 1a, 1b, 2, 6, 37, 62, London, SARS-yellow, SARS-green). It is filed as binding, human. Details: Binding of serum 6 to linear peptides of protein X1 of SARS-CoV Urbani / Binding of serum 37 to linear peptides of protein X1 of SARS-CoV Urbani / Binding of serum 6 to looped/cyclic peptide (PEPSCAN-ELISA) / Binding of serum 37 to looped/cyclic peptide (PEPSCAN-ELISA) / Binding of serum 37 to looped/cyclic peptides of protein X1 of SARS-CoV Urbani / Binding of serum 6 to linear peptides of protein X2 / Binding of serum 37 to linear peptides of protein X2 / Binding of serum 37 to looped/cyclic peptides of protein X2 of SARS-CoV Urbani / Binding of serum 6 to linear peptides of protein M of SARS-CoV Urbani / Binding of serum 37 to linear peptides of protein M of SARS-CoV Urbani / Binding of serum 6 to looped/cyclic peptides of protein M of SARS-CoV Urbani / Binding of serum 37 to looped/cyclic peptides of protein M of SARS-CoV Urbani / Binding of serum 6 to linear peptides of protein X3 of SARS-CoV Urbani / Binding of serum 37 to linear peptides of protein X3 of SARS-CoV Urbani / Binding of serum 37 to looped/cyclic peptides of protein X3 of SARS-CoV Urbani / Binding of serum 6 to linear peptides of protein X4 of SARS-CoV Urbani / Binding of serum 37 to linear peptides of protein X4 of SARS-CoV Urbani / Binding of serum 37 to looped/cyclic peptides of protein X4 of SARS-CoV Urbani / Binding of serum 6 to linear peptides of protein X5 of SARS-CoV Urbani / Binding of serum 37 to linear peptides of protein X5 of SARS-CoV Urbani / Binding of serum 37 to looped/cyclic peptides of protein X5 of SARS-CoV Urbani / Binding of serum 6 to linear peptides of protein N of SARS-CoV Urbani / Binding of serum 37 to linear peptides of protein N of SARS-CoV Urbani / Binding of serum 6 to linear peptide (PEPSCAN-ELISA) / Binding of serum 1a to looped/cyclic peptides of protein N of SARS-CoV Urbani / Binding of serum 1b to looped/cyclic peptides of protein N of SARS-CoV Urbani / Binding of serum 2 to looped/cyclic peptides of protein N of SARS-CoV Urbani / Binding of serum 6 to looped/cyclic peptides of protein N of SARS-CoV Urbani / Binding of serum 37 to looped/cyclic peptides of protein N of SARS-CoV Urbani / Binding of serum 62 to looped/cyclic peptides of protein N of SARS-CoV Urbani / Binding of serum London to looped/cyclic peptides of protein N of SARS-CoV Urbani / Binding of serum SARS-green to looped/cyclic peptides of protein N of SARS-CoV Urbani: unit not given here.

The subject of experiment [2] is rabbit serum obtained by immunizing a rabbit with the SARS-CoV strain Frankfurt 1. Format: binding. Details: Binding of a rabbit serum to linear peptides / Binding of a rabbit serum to looped peptides / Rabbit serum linear peptides / Rabbit serum looped peptides / Binding of a rabbit serum to linear peptides of protein N of SARS-CoV Urbani (Rabbit serum linear peptides) / Binding of a rabbit serum to looped/cyclic peptides of protein N of SARS-CoV Urbani (Rabbit serum looped peptides): unit not given here.

Experiment [3] deals with control sera (pooled serum of ten healthy LUMC hospital workers; commercial negative donor pooled serum from the Dutch bloodbank). Format: binding, human. Also noted: Binding of Control serum LUMC to linear peptides / Binding of Control serum Blood-bank to linear peptides / Binding of Control serum LUMC to looped peptides / Binding of Control Serum Blood-Bank to Looped peptides / Binding of Control serum LUMC to linear peptides of the protein M of SARS-CoV Urbani / Binding of Control serum Blood-bank to linear peptides of the protein M of SARS-CoV Urbani / Binding of Control serum LUMC to looped peptides of the protein M of SARS-CoV Urbani / Binding of Control Serum Blood-Bank to Looped peptides of the protein M of SARS-CoV Urbani: unit not given here.

For GMEAQFLYLYALIYF, in experiment [1], the “Binding of serum 1a to linear peptides of protein X1 of SARS-CoV Urbani” value was 0.8, the “Binding of serum 1a to looped/cyclic peptide (PEPSCAN-ELISA)” value stood at 0.6, the “Binding of serum 1b to linear peptides of protein X1 of SARS-CoV Urbani” value turned out to be 0.6 and the “Binding of serum 1b to looped/cyclic peptide (PEPSCAN-ELISA)” value stood at 0.4. For the same sequence, in experiment [1], the “Binding of serum 2 to linear peptides of protein X1 of SARS-CoV Urbani” value is 0.6, the “Binding of serum 2 to looped/cyclic peptide (PEPSCAN-ELISA)” value was 0.5, the “Binding of serum 6 to linear peptides of protein X1 of SARS-CoV Urbani” value came out at 0.5 and the “Binding of serum 6 to looped/cyclic peptide (PEPSCAN-ELISA)” value was found to be 0.3. Moreover, in experiment [1], the “Binding of serum 37 to linear peptides of protein X1 of SARS-CoV Urbani” value stood at 0.5, the “Binding of serum 37 to looped/cyclic peptide (PEPSCAN-ELISA)” value was 0.4, the “Binding of serum 62 to linear peptides of protein X1 of SARS-CoV Urbani” value is on record as 0.4 and the “Binding of serum 62 to looped/cyclic peptide (PEPSCAN-ELISA)” value stood at 0.5. Also, in experiment [1], the “Binding of serum London to linear peptides of protein X1 of SARS-CoV Urbani” value amounted to 0.2, the “Binding of serum London to looped/cyclic peptide (PEPSCAN-ELISA)” value is 0.2, the “Binding of serum SARS-green to linear peptides of protein X1 of SARS-CoV Urbani” value was determined as 0.1 and the “Binding of serum SARS-green to looped/cyclic peptide (PEPSCAN-ELISA)” value was determined as 0.3. In experiment [1], the “Binding of serum SARS-yellow to linear peptides of protein X1 of SARS-CoV Urbani” value is reported as 0.3 and the “Binding of serum SARS-yellow to looped/cyclic peptide (PEPSCAN-ELISA)” value came to 0.4. Besides, in experiment [2], the “Binding of a rabbit serum to linear peptides” value is recorded as 0.1 and the “Binding of a rabbit serum to looped peptides” value was 0.6. In experiment [3], the “Binding of Control Serum Blood-Bank to Looped peptides” value amounted to 0.5, the “Binding of Control serum Blood-bank to linear peptides” value is given as 0.4, the “Binding of Control serum LUMC to linear peptides” value worked out at 0.6 and the “Binding of Control serum LUMC to looped peptides” value is given as 0.8.

With GTIVTRPLMESELVI, in experiment [1], the “Binding of serum 1a to linear peptides of protein M of SARS-CoV Urbani” value is given as 0.8, the “Binding of serum 1b to linear peptides of protein M of SARS-CoV Urbani” value stood at 0.7, the “Binding of serum 2 to linear peptides of protein M of SARS-CoV Urbani” value turned out to be 0.7 and the “Binding of serum 6 to linear peptides of protein M of SARS-CoV Urbani” value was determined as 0.5. Also, in experiment [1], the “Binding of serum 37 to linear peptides of protein M of SARS-CoV Urbani” value is 0.6, the “Binding of serum 62 to linear peptides of protein M of SARS-CoV Urbani” value amounted to 0.7, the “Binding of serum London to linear peptides of protein M of SARS-CoV Urbani” value was determined as 0.3 and the “Binding of serum SARS-green to linear peptides of protein M of SARS-CoV Urbani” value was 0.7. In addition, in experiment [1], the “Binding of serum SARS-yellow to linear peptides of protein M of SARS-CoV Urbani” value turned out to be 0.2; the “Recognition of the peptide by sera of SARS-CoV infected individuals, and form (linear, looped/cyclic) in which it is recognized” value is given as “recognized in looped/cyclic form”. In experiment [2], the “Rabbit serum linear peptides” value was determined as 0.1 and the “Rabbit serum looped peptides” value is 0.5. For the same sequence, in experiment [3], the “Binding of Control Serum Blood-Bank to Looped peptides of the protein M of SARS-CoV Urbani” value is 0.8, the “Binding of Control serum Blood-bank to linear peptides of the protein M of SARS-CoV Urbani” value is listed as 0.7, the “Binding of Control serum LUMC to linear peptides of the protein M of SARS-CoV Urbani” value came out at 0.6 and the “Binding of Control serum LUMC to looped peptides of the protein M of SARS-CoV Urbani” value is 1.0.

GTRHTYQLRARSVSP: in experiment [1], the “Binding of serum 1a to linear peptides of protein X4 of SARS-CoV Urbani” value is listed as 0.7, the “Binding of serum 1a to looped/cyclic peptides of protein X4 of SARS-CoV Urbani” value is given as 0.8, the “Binding of serum 1b to linear peptides of protein X4 of SARS-CoV Urbani” value was 0.6 and the “Binding of serum 1b to looped/cyclic peptides of protein X4 of SARS-CoV Urbani” value came to 0.5. In addition, in experiment [1], the “Binding of serum 2 to linear peptides of protein X4 of SARS-CoV Urbani” value amounted to 0.8, the “Binding of serum 2 to looped/cyclic peptides of protein X4 of SARS-CoV Urbani” value is recorded as 1.0, the “Binding of serum 6 to linear peptides of protein X4 of SARS-CoV Urbani” value worked out at 0.6 and the “Binding of serum 6 to looped/cyclic peptides of protein X4 of SARS-CoV Urbani” value is given as 0.6. In experiment [1], the “Binding of serum 37 to linear peptides of protein X4 of SARS-CoV Urbani” value is listed as 0.8, the “Binding of serum 37 to looped/cyclic peptides of protein X4 of SARS-CoV Urbani” value was determined as 0.7, the “Binding of serum 62 to linear peptides of protein X4 of SARS-CoV Urbani” value is given as 0.8 and the “Binding of serum 62 to looped/cyclic peptides of protein X4 of SARS-CoV Urbani” value came out at 0.8. Moreover, in experiment [1], the “Binding of serum London to linear peptides of protein X4 of SARS-CoV Urbani” value was 0.8, the “Binding of serum London to looped/cyclic peptides of protein X4 of SARS-CoV Urbani” value came to 0.3, the “Binding of serum SARS-green to linear peptides of protein X4 of SARS-CoV Urbani” value was 0.6 and the “Binding of serum SARS-green to looped/cyclic peptides of protein X4 of SARS-CoV Urbani” value is 0.5. For the same sequence, in experiment [1], the “Binding of serum SARS-yellow to linear peptides of protein X4 of SARS-CoV Urbani” value stood at 0.8 and the “Binding of serum SARS-yellow to looped/cyclic peptides of protein X4 of SARS-CoV Urbani” value amounted to 0.7. Moreover, the “Recognition of the peptide by the rabbit serum” value in experiment [2] is listed as “recognized”. For the same sequence, in experiment [3], the “Binding of Control Serum Blood-Bank to Looped peptides” value worked out at 0.7, the “Binding of Control serum Blood-bank to linear peptides” value is reported as 0.8, the “Binding of Control serum LUMC to linear peptides” value was 0.6 and the “Binding of Control serum LUMC to looped peptides” value is 0.8.

For GVAFLAVFQSATKII, in experiment [1], the “Binding of serum 1a to linear peptides of protein X1 of SARS-CoV Urbani” value came out at 0.7, the “Binding of serum 1a to looped/cyclic peptide (PEPSCAN-ELISA)” value was 0.6, the “Binding of serum 1b to linear peptides of protein X1 of SARS-CoV Urbani” value was determined as 0.6 and the “Binding of serum 1b to looped/cyclic peptide (PEPSCAN-ELISA)” value was 0.4. In experiment [1], the “Binding of serum 2 to linear peptides of protein X1 of SARS-CoV Urbani” value was 0.8, the “Binding of serum 2 to looped/cyclic peptide (PEPSCAN-ELISA)” value was determined as 0.6, the “Binding of serum 6 to linear peptides of protein X1 of SARS-CoV Urbani” value turned out to be 0.7 and the “Binding of serum 6 to looped/cyclic peptide (PEPSCAN-ELISA)” value was 0.5. In experiment [1], the “Binding of serum 37 to linear peptides of protein X1 of SARS-CoV Urbani” value came out at 0.6, the “Binding of serum 37 to looped/cyclic peptide (PEPSCAN-ELISA)” value was found to be 0.6, the “Binding of serum 62 to linear peptides of protein X1 of SARS-CoV Urbani” value worked out at 0.6 and the “Binding of serum 62 to looped/cyclic peptide (PEPSCAN-ELISA)” value stood at 0.6. In experiment [1], the “Binding of serum London to linear peptides of protein X1 of SARS-CoV Urbani” value amounted to 0.2, the “Binding of serum London to looped/cyclic peptide (PEPSCAN-ELISA)” value amounted to 0.4, the “Binding of serum SARS-green to linear peptides of protein X1 of SARS-CoV Urbani” value is given as 0.3 and the “Binding of serum SARS-green to looped/cyclic peptide (PEPSCAN-ELISA)” value is given as 0.3. Further, in experiment [1], the “Binding of serum SARS-yellow to linear peptides of protein X1 of SARS-CoV Urbani” value amounted to 0.2 and the “Binding of serum SARS-yellow to looped/cyclic peptide (PEPSCAN-ELISA)” value came out at 0.3. Besides, in experiment [2], the “Binding of a rabbit serum to linear peptides” value came to 0.9 and the “Binding of a rabbit serum to looped peptides” value was 0.6. Moreover, in experiment [3], the “Binding of Control Serum Blood-Bank to Looped peptides” value is listed as 0.7, the “Binding of Control serum Blood-bank to linear peptides” value is on record as 0.5, the “Binding of Control serum LUMC to linear peptides” value was found to be 0.7 and the “Binding of Control serum LUMC to looped peptides” value was found to be 0.7.
